# In patent publication US10479780B2, “Aminopyrazole derivatives” (Chugai Seiyaku Kabushiki Kaisha, priority 2015, dated 2019):
# Assays:
# Format in all cases: biochemical
# human Yes1 enzyme = target: T1, human Yes1 enzyme (Homo sapiens, UniProt P07947); assay: Yes1 enzyme inhibitory activity (time-resolved fluorometry, biotinylated peptide phosphorylation); conditions: biotinylated peptide phosphorylation, read-out: YES_IC50
# T1 construct: made in house
# In short: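 Inhibition was expressed against a compound-free control to give IC50, using TR-FRET read-out (Eu-cryptate anti-pTyr antibody, streptavidin-XL665).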
# human Src enzyme = target: T2, human Src enzyme (Homo sapiens, UniProt P12931); assay: Src enzyme inhibitory activity (time-resolved fluorometry, biotinylated peptide phosphorylation); conditions: biotinylated peptide phosphorylation, read-out: SRC_IC50
# T2 construct: purchased Carna Biosciences, Inc. 08-173
# In short: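 Compounds were tested for blocking tyrosine phosphorylation of a biotinylated peptide substrate by recombinant human Src. Phosphorylated product was quantified by time-resolved fluorometry using europium cryptate and XL665 conjugates, and IC50 was calculated against the compound-free control.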
# human Lck enzyme = target: T3, human Lck enzyme (Homo sapiens, UniProt P06239); assay: Lck enzyme inhibitory activity (time-resolved fluorometry, biotinylated peptide phosphorylation); conditions: biotinylated peptide phosphorylation, read-out: LCK_IC50
# T3 construct: purchased Carna Biosciences, Inc. 08-170
# In short: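 Readout pairs a europium cryptate-labelled anti-phosphotyrosine antibody with XL665-streptavidin, measured by time-resolved fluorescence. IC50 derived from percent inhibition against untreated controls.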
# T2 sequence (P12931 whole entry): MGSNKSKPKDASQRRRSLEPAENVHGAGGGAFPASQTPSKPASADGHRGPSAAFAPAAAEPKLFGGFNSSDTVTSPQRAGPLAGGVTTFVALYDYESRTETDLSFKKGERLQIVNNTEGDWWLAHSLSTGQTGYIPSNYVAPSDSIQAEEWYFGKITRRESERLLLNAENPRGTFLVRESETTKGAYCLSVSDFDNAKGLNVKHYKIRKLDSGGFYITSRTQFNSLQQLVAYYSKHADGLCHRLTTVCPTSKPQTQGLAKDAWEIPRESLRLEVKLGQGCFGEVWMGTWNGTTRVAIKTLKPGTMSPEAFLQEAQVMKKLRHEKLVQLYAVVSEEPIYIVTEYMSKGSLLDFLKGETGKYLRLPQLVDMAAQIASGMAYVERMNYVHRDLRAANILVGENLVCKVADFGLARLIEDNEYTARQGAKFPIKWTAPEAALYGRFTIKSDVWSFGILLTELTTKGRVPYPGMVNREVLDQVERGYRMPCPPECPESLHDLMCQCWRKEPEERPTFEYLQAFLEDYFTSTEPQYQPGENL
# T3 sequence (P06239 whole entry): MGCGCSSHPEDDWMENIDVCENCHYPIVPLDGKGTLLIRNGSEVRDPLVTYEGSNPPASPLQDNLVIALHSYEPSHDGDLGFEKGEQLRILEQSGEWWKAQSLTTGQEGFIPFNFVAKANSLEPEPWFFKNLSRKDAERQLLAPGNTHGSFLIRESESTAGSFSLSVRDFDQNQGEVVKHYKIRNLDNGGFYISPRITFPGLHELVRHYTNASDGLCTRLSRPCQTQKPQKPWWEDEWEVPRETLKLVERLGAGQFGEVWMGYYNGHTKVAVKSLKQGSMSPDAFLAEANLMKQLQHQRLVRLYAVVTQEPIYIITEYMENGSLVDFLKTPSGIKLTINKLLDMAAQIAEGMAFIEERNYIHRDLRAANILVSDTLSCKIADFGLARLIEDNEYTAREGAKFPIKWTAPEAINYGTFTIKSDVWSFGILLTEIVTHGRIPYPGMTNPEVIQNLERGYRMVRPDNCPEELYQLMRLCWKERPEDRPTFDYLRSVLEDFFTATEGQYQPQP
# T1 sequence (P07947 whole entry): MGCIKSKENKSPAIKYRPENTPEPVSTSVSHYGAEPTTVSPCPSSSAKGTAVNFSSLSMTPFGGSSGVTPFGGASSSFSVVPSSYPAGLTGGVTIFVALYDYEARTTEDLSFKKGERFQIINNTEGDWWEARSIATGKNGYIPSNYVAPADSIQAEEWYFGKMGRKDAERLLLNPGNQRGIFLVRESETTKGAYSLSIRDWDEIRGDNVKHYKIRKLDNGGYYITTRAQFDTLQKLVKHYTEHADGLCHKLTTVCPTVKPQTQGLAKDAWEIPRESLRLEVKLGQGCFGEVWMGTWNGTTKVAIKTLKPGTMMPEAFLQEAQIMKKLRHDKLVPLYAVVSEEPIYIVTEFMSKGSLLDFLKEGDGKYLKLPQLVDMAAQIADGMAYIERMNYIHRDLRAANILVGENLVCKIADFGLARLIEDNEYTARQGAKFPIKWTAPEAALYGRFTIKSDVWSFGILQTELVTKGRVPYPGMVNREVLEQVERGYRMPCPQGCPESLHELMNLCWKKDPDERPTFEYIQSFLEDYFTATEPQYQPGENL
structure (smiles),measurement,setting,value
"Cc1cc(Oc2ccccc2F)cc(F)c1-n1ncc(C(=O)c2cc3cc(OC(F)F)c(N4CCN(S(C)(=O)=O)CC4)cc3[nH]2)c1N [Example 4-23-003, [5-amino-1-[2-fluoro-4-(2-fluorophenoxy)-6-methylphenyl]pyrazol-4-yl]-[5-(difluoromethoxy)-6-(4-methylsulfonylpiperazin-1-yl)-1H-indol-2-yl]methanone]",IC50,human Yes1 enzyme,10 nM
same,IC50,human Src enzyme,62 nM
same,IC50,human Lck enzyme,21 nM
"Cc1cc(Oc2ccccc2F)ncc1-n1ncc(C(=O)c2cc3cc(OC(F)F)c(N4CCN(S(C)(=O)=O)CC4)cc3[nH]2)c1N [Example 4-23-004, [5-amino-1-[6-(2-fluorophenoxy)-4-methylpyridin-3-yl]pyrazol-4-yl]-[5-(difluoromethoxy)-6-(4-methylsulfonylpiperazin-1-yl)-1H-indol-2-yl]methanone]",IC50,human Yes1 enzyme,5.5 nM
same,IC50,human Src enzyme,48 nM
same,IC50,human Lck enzyme,18 nM
"Cc1cc(Oc2ccccc2F)ccc1-n1ncc(C(=O)c2cc3cc(OCC(F)F)c(N4CCN(S(C)(=O)=O)CC4)cc3[nH]2)c1N [Example 4-23-005, [5-amino-1-[4-(2-fluorophenoxy)-2-methylphenyl]pyrazol-4-yl]-[5-(2,2-difluoroethoxy)-6-(4-methylsulfonylpiperazin-1-yl)-1H-indol-2-yl]methanone]",IC50,human Yes1 enzyme,1.7 nM
same,IC50,human Src enzyme,16 nM
same,IC50,human Lck enzyme,8.2 nM
"Cc1cc(Oc2ccccc2F)cc(F)c1-n1ncc(C(=O)c2cc3cc(OCC(F)F)c(N4CCN(S(C)(=O)=O)CC4)cc3[nH]2)c1N [Example 4-23-006, [5-amino-1-[2-fluoro-4-(2-fluorophenoxy)-6-methylphenyl]pyrazol-4-yl]-[5-(2,2-difluoroethoxy)-6-(4-methylsulfonylpiperazin-1-yl)-1H-indol-2-yl]methanone]",IC50,human Yes1 enzyme,2.7 nM
same,IC50,human Src enzyme,22 nM
same,IC50,human Lck enzyme,13 nM
"Cc1cc(Oc2ccccc2F)ncc1-n1ncc(C(=O)c2cc3cc(OCC(F)F)c(N4CCN(S(C)(=O)=O)CC4)cc3[nH]2)c1N [Example 4-23-007, [5-amino-1-[6-(2-fluorophenoxy)-4-methylpyridin-3-yl]pyrazol-4-yl]-[5-(2,2-difluoroethoxy)-6-(4-methylsulfonylpiperazin-1-yl)-1H-indol-2-yl]methanone]",IC50,human Yes1 enzyme,1.3 nM
same,IC50,human Src enzyme,16 nM
same,IC50,human Lck enzyme,5.5 nM
"Cc1cc(Oc2c(F)cccc2F)ncc1-n1ncc(C(=O)c2cc3cc(OCC(F)F)c(NC4COC4)cc3[nH]2)c1N [Example 4-23-008, {5-amino-1-[6-(2,6-difluorophenoxy)-4-methylpyridin-3-yl]pyrazol-4-yl}-[5-(2,2-difluoroethoxy)-6-(oxetan-3-ylamino)-1H-indol-2-yl]methanone]",IC50,human Yes1 enzyme,3.3 nM
same,IC50,human Src enzyme,23 nM
same,IC50,human Lck enzyme,4.6 nM
"Cc1cc(Oc2ccccc2F)ccc1-n1ncc(C(=O)c2cc3cc(OC(F)F)c(NC4COC4)cc3[nH]2)c1N [Example 4-23-009, [5-amino-1-[4-(2-fluorophenoxy)-2-methylphenyl]pyrazol-4-yl]-[5-(difluoromethoxy)-6-(oxetan-3-ylamino)-1H-indol-2-yl]methanone]",IC50,human Yes1 enzyme,3.2 nM
same,IC50,human Src enzyme,22 nM
same,IC50,human Lck enzyme,8.9 nM
"Cc1cc(Oc2ccccc2F)ccc1-n1ncc(C(=O)c2cc3cc(OC(F)F)c(NC4CCN(S(C)(=O)=O)CC4)cc3[nH]2)c1N [Example 4-23-010, [5-amino-1-[4-(2-fluorophenoxy)-2-methylphenyl]pyrazol-4-yl]-[5-(difluoromethoxy)-6-[(1-methylsulfonylpiperidin-4-yl)amino]-1H-indol-2-yl]methanone]",IC50,human Yes1 enzyme,7.2 nM
same,IC50,human Src enzyme,34 nM
same,IC50,human Lck enzyme,25 nM
"Cc1cc(Oc2ccccc2F)cc(F)c1-n1ncc(C(=O)c2cc3cc(OC(F)F)c(NC4COC4)cc3[nH]2)c1N [Example 4-23-011, [5-amino-1-[2-fluoro-4-(2-fluorophenoxy)-6-methylphenyl]pyrazol-4-yl]-[5-(difluoromethoxy)-6-(oxetan-3-ylamino)-1H-indol-2-yl]methanone]",IC50,human Yes1 enzyme,7.6 nM
same,IC50,human Src enzyme,63 nM
same,IC50,human Lck enzyme,19 nM
"Cc1cc(Oc2ccccc2F)cc(F)c1-n1ncc(C(=O)c2cc3cc(OC(F)F)c(NC4CCN(S(C)(=O)=O)CC4)cc3[nH]2)c1N [Example 4-23-012, [5-amino-1-[2-fluoro-4-(2-fluorophenoxy)-6-methylphenyl]pyrazol-4-yl]-[5-(difluoromethoxy)-6-[(1-methylsulfonylpiperidin-4-yl)amino]-1H-indol-2-yl]methanone]",IC50,human Yes1 enzyme,14 nM
same,IC50,human Src enzyme,70 nM
same,IC50,human Lck enzyme,31 nM
"Cc1cc(Oc2ccccc2F)ncc1-n1ncc(C(=O)c2cc3cc(OC(F)F)c(NC4COC4)cc3[nH]2)c1N [Example 4-23-013, [5-amino-1-[6-(2-fluorophenoxy)-4-methylpyridin-3-yl]pyrazol-4-yl]-[5-(difluoromethoxy)-6-(oxetan-3-ylamino)-1H-indol-2-yl]methanone]",IC50,human Yes1 enzyme,1.6 nM
same,IC50,human Src enzyme,40 nM
same,IC50,human Lck enzyme,4.6 nM
"Cc1cc(Oc2c(F)cccc2F)ncc1-n1ncc(C(=O)c2cc3cc(OC(F)F)c(NC4COC4)cc3[nH]2)c1N [Example 4-23-014, [5-amino-1-[6-(2,6-difluorophenoxy)-4-methylpyridin-3-yl]pyrazol-4-yl]-[5-(difluoromethoxy)-6-(oxetan-3-ylamino)-1H-indol-2-yl]methanone]",IC50,human Yes1 enzyme,3.5 nM
same,IC50,human Src enzyme,22 nM
same,IC50,human Lck enzyme,9.2 nM
"Cc1cc(Oc2c(F)cccc2F)ncc1-n1ncc(C(=O)c2cc3cc(OC(F)F)c(NC4CCN(S(C)(=O)=O)CC4)cc3[nH]2)c1N [Example 4-23-015, [5-amino-1-[6-(2,6-difluorophenoxy)-4-methylpyridin-3-yl]pyrazol-4-yl]-[5-(difluoromethoxy)-6-[(1-methylsulfonylpiperidin-4-yl)amino]-1H-indol-2-yl]methanone]",IC50,human Yes1 enzyme,5.4 nM
same,IC50,human Src enzyme,49 nM
same,IC50,human Lck enzyme,23 nM
"Cc1cc(Oc2ccccc2F)ccc1-n1ncc(C(=O)c2cc3cc(OCC(F)F)c(NC4COC4)cc3[nH]2)c1N [Example 4-23-016, [5-amino-1-[4-(2-fluorophenoxy)-2-methylphenyl]pyrazol-4-yl]-[5-(2,2-difluoroethoxy)-6-(oxetan-3-ylamino)-1H-indol-2-yl]methanone]",IC50,human Yes1 enzyme,0.94 nM
same,IC50,human Src enzyme,21 nM
same,IC50,human Lck enzyme,5.4 nM
"Cc1cc(Oc2ccccc2F)ccc1-n1ncc(C(=O)c2cc3cc(OCC(F)F)c(NC4CCN(S(C)(=O)=O)CC4)cc3[nH]2)c1N [Example 4-23-017, [5-amino-1-[4-(2-fluorophenoxy)-2-methylphenyl]pyrazol-4-yl]-[5-(2,2-difluoroethoxy)-6-[(1-methylsulfonylpiperidin-4-yl)amino]-1H-indol-2-yl]methanone]",IC50,human Yes1 enzyme,5.1 nM
same,IC50,human Src enzyme,28 nM
same,IC50,human Lck enzyme,13 nM
"Cc1cc(Oc2ccccc2F)ccc1-n1ncc(C(=O)c2cc3cc(OCC(F)F)c(NC4CN(S(C)(=O)=O)C4)cc3[nH]2)c1N [Example 4-23-018, [5-amino-1-[4-(2-fluorophenoxy)-2-methylphenyl]pyrazol-4-yl]-[5-(2,2-difluoroethoxy)-6-[(1-methylsulfonylazetidin-3-yl)amino]-1H-indol-2-yl]methanone]",IC50,human Yes1 enzyme,1.4 nM
same,IC50,human Src enzyme,18 nM
same,IC50,human Lck enzyme,6.5 nM
